Values quoted from earlier work, collected in patent US20060251786A1 (priority 2005, published 2006).

Settings: scale of 1-6; Gosselin et al., 5th ed, 1984

SMILES	toxicity level
O=c1ccc2ccccc2o1 [coumarin, 1,2-benzopyrone]	4
CN1CCCC1c1cccnc1 (centres unmarked) [nicotine]	6
